Laboratory results reported in the NIST ThermoML archive (doi:10.1016/j.jct.2012.02.007).

Key:
[1] = mn = molality of the nth substance listed, in mol/kg; details: 101.3 kPa, Liquid; for speed of sound: Sing-around technique in a fixed-path interferometer; for mass density: Vibrating tube method
[2] = osmotic coefficient (dimensionless); mn = molality of the nth substance listed, in mol/kg; details: 323.15 K, Liquid, Vapor Pressure Osmometer

CCCCn1cc[n+](C)c1.N#CN=C=[N-] [1-butyl-3-methylimidazolium dicyanamide] + CCCCO
[1]
Details	mass density, 293.15 K [kg/m3]	mass density, 308.15 K [kg/m3]	mass density, 323.15 K [kg/m3]	speed of sound, 293.15 K [m/s]	speed of sound, 308.15 K [m/s]	speed of sound, 323.15 K [m/s]
m1 = 0.0564	812.2	800.77	788.99	1261.4	1211.3	1161.9
m1 = 0.1049	814.3	802.91	791.18	1264.8	1214.9	1165.8
m1 = 0.156	816.47	805.11	793.43	1268.3	1218.6	1169.6
m1 = 0.204	818.49	807.15	795.51	1271.7	1222	1173.1
m1 = 0.2581	820.7	809.41	797.8	1275.2	1225.8	1177.1
m1 = 0.5068	830.31	819.12	807.68	1290.3	1241.6	1193.7
m1 = 0.7637	839.41	828.32	817.01	1304.9	1256.7	1209.3
m1 = 1.006	847.36	836.34	825.14	1317.6	1270	1223.2
m1 = 1.271	855.38	844.45	833.35	1330.6	1283.5	1237.4
m1 = 1.516	862.28	851.41	840.4	1341.9	1295.3	1249.7
m1 = 1.766	868.85	858.05	847.12	1352.9	1306.7	1261.6
m1 = 2.004	874.76	864.01	853.15	1362.9	1317.1	1272.3
m1 = 2.509	886.17	875.53	864.81	1382.3	1337.5	1293.4
m1 = 2.993	895.87	885.33	874.72	1399.5	1355.1	1311.7
m1 = 3.535	905.44	895.01	884.51	1416.7	1373	1330.2

[2]
Details	osmotic coefficient
m1 = 0.0803	0.739
m1 = 0.1014	0.707
m1 = 0.2018	0.653
m1 = 0.31	0.625
m1 = 0.4166	0.604
m1 = 0.5175	0.594
m1 = 0.8182	0.585
m1 = 1.221	0.564
m1 = 1.633	0.551
m1 = 2.026	0.536
m1 = 2.413	0.528
m1 = 2.82	0.522
m1 = 3.306	0.508
